In this assay the test system is human PBMC. As to the kind of experiment: TLR7/8 agonists induce cytokine release in human PBMC (ELISA of culture supernatant, 24 h). In kind it is cell-based. The conditions noted are these: minimum effective concentration: lowest concentration inducing cytokine at least 2x negative control, tested 0.0152-100 μM. The method, then: Example 13. TLR7/8 agonists induce IFN-gamma and TNF-alpha release in human PBMC
The system is used to assess the cytokines release. Activity is based on the measurement of interferon-gamma (IFN-γ) and tumor necrosis factor-alpha (TNF-α) secreted into culture media.
Fresh human blood was diluted with the same volume of PBS, 15 mL Lymphoprep was added into a Sepmate tube, then 30 mL diluted blood was added on the top gently without disturbing the interface.
The Sepmate tube was centrifuged for 25 min at 1000×g at RT with brake off.
The buffy coat containing peripheral blood mononuclear cells (PBMCs) was collected from Sepmate tube and transferred into a new tube, and the cells were washed with 40 mL PBS twice and centrifuged at 350×g for 5 min.
PBMCs were resuspended in complete culture medium at a density of 2E6/mL.
The compounds are solubilized in dimethyl sulfoxide (DMSO) and diluted into indicated concentration with complete culture medium.
2*10^5 PBMCs (in 100 μL) were added to each well of 96-well flat bottom plate.
2× final concentration of 3-fold serial diluted compounds (in 100 μL) were added to indicated wells and final volume was 200 μL.
The plate was covered with sterile lids, mixed gently and then incubated for 24 h at 37° C./5% CO2 incubator.
Following incubation, the plates was centrifuged for 5 min. at 400×g. The cell-free culture Supernatant was removed into a non-sterile polypropylene plate. Samples are maintained at −80° C. until analysis. The samples were analyzed for TNF-α and IFN-γ by ELISA according to the direction.
TNF-α and IFN-α were analyzed by ELISA. IFN-α concentration was determined by ELISA using a Human IFN-α ELISA Kit from R&D Systems (Catalog #41100-2) and read on VICTOR Nivo™ from PerkinElmer. Results were expressed in pg/mL. TNF-α concentration was determined by ELISA using a Human TNF-alpha ELISA MAX™ Deluxe from BioLegend (Catalog #430205) and read on VICTOR Nivo™ from PerkinElmer. Results were expressed in pg/mL.
Specifically, the MEC of each compound (micromolar) was determined as the lowest concentration of the compound that induced a measured cytokine response at a level ([…]) that was at least 2× greater than that observed with the negative control wells.
For orientation: ELISA stands for enzyme-linked immunosorbent assay.

Setting [1] is: read-out: MEC to induce cytokine: IFN-alpha.
[2] abbreviates: read-out: MEC to induce cytokine: TNF-alpha.

Where two headings read alike, the source gives them in different places. Where only a bound is given, the exact number is not on record here.

For `CCCCCCCCCCCCCCCCCNc1c(NCCCCOn2c(CCCC)nc3c(N)nc4ccccc4c32)c(=O)c1=O` [Example 2, 3-((4-((4-amino-2-butyl-1H-imidazo[4,5-c]quinolin-1-yl)oxy)butyl)amino)-4-(heptadecylamino)cyclobut-3-ene-1,2-dione], the minimal effective concentration by setting is: under setting [1], 0.0152 µM; under setting [2], 0.0457 µM.

Consider `CCCCCCCCCCCCCCCCCc1nc(CCCCOn2c(CCCC)nc3c(N)nc4ccccc4c32)no1` [Example 10, 2-butyl-1-(4-(5-heptadecyl-1,2,4-oxadiazol-3-yl)butoxy)-1H-imidazo[4,5-c]quinolin-4-amine], for which the minimal effective concentration was determined as 11.1 µM under setting [1] and 3.7 µM under setting [2].

As for `CCCCCCCCCCCCCCCCCNC(=O)C(=O)NCCCCOn1c(CCCC)nc2c(N)nc3ccccc3c21` [Example 1, N1-(4-((4-amino-2-butyl-1H-imidazo[4,5-c]quinolin-1-yl)oxy)butyl)-N2-heptadecyloxalamide], the minimal effective concentration under setting [1] was greater than 33.3 µM and the minimal effective concentration under setting [2] came to 11.1 µM.

For the compound `CCCCCCCCCCCCCCCCCNc1c(N(CCCCOn2c(CCCC)nc3c(N)nc4ccccc4c32)CCCN(C)C)c(=O)c1=O` [Example 7, 3-((4-((4-amino-2-butyl-1H-imidazo[4,5-c]quinolin-1-yl)oxy)butyl)(3-(dimethylamino)propyl)amino)-4-(heptadecylamino)cyclobut-3-ene-1,2-dione], the minimal effective concentration is, setting by setting: under setting [1], 0.0152 µM; under setting [2], 0.41 µM.

As to `CCCCCCCCCCCCCCCCCCN(CCCCOn1c(CCCC)nc2c(N)nc3ccccc3c21)CCCN(C)C` [Example 5, N1-(4-((4-amino-2-butyl-1H-imidazo[4,5-c]quinolin-1-yl)oxy)butyl)-N3,N3-dimethyl-N1-octadecylpropane-1,3-diamine], the minimal effective concentration is 1.23 µM under setting [1] and 11.1 µM under setting [2].

For the compound `CCCCCCCCCCCCCCCCN1CCC(C(=O)NCCCCOn2c(CCCC)nc3c(N)nc4ccccc4c32)CC1` [Example 3, N-(4-((4-amino-2-butyl-1H-imidazo[4,5-c]quinolin-1-yl)oxy)butyl)-1-hexadecylpiperidine-4-carboxamide], the minimal effective concentration under setting [1] was determined as 0.137 µM and the minimal effective concentration under setting [2] is 0.137 µM.

For the compound `CCCCCCCCCCCCCCCCCN(CCCN(C)C)c1c(NCCCCOn2c(CCCC)nc3c(N)nc4ccccc4c32)c(=O)c1=O` [Example 12, 3-(4-(4-amino-2-butyl-1H-imidazo[4,5-c]quinolin-1-yloxy)butylamino)-4-((3-(dimethylamino)propyl)(heptadecyl)amino)cyclobut-3-ene-1,2-dione], the minimal effective concentration stood at 0.0152 µM under setting [1] and 0.41 µM under setting [2].

With `CCCCCCCCCCCCCCCCCc1noc(CCCCOn2c(CCCC)nc3c(N)nc4ccccc4c32)n1` [Example 11, 2-butyl-1-(4-(3-heptadecyl-1,2,4-oxadiazol-5-yl)butoxy)-1H-imidazo[4,5-c]quinolin-4-amine], the minimal effective concentration worked out at 11.1 µM under setting [1] and 33.3 µM under setting [2].

Consider `CCCCCCCCCCCCCCCCCNC(=O)C(=O)N(CCCCOn1c(CCCC)nc2c(N)nc3ccccc3c21)CCCN(C)C` [Example 6, N1-(4-((4-amino-2-butyl-1H-imidazo[4,5-c]quinolin-1-yl)oxy)butyl)-N1-(3-(dimethylamino)propyl)-N2-heptadecyloxalamide], for which the minimal effective concentration is greater than 100 µM under setting [1] and greater than 100 µM under setting [2].

The values are drawn from patent publication US10954239B2, “Imidazoquinoline amine derivatives, pharmaceutical compositions and therapeutic methods thereof” (CanWell Biotech Limited, priority 2019, dated 2021).
